This assay addresses T1, human GR (Homo sapiens, UniProt P04150).
T1 construct: naturally expresses the human GR; endogenous in cells
T1 sequence (P04150 1-777): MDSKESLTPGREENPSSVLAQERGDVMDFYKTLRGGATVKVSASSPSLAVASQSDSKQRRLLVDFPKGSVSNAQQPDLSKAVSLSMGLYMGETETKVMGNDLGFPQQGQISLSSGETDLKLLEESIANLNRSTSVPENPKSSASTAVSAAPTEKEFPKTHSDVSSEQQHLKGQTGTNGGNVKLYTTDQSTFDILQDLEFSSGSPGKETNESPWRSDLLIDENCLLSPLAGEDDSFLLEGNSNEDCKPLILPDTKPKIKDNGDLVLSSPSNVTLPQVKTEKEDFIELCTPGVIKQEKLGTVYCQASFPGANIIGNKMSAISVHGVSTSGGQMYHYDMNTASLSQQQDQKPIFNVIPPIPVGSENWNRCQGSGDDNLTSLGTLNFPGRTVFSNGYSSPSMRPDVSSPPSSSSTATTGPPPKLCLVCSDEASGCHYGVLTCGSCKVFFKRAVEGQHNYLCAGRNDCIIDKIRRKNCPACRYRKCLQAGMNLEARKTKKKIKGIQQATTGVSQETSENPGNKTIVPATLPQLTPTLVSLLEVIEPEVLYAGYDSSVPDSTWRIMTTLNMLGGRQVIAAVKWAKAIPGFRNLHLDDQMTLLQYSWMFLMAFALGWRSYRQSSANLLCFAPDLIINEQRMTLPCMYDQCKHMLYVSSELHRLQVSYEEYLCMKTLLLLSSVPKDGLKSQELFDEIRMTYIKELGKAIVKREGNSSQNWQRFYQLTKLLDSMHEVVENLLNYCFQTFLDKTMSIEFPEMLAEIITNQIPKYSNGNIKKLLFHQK
In words: Transrepression Assay (GITAR), TNFα-β-lactamase reporter in U937 cells. As to conditions: for Emax: U-937, activity repressed by 100 nM dexamethasone set as 100%; for EC50: inflection point (IP), TNFα promoter β-lactamase reporter, PMA/LPS; for Transrepression U937 Cells GITAR Emax (%): activity repressed by 100 nM dexamethasone set as 100%. Format: cell-based. The text has this: This assay assesses the ability of test compounds to control transcription from the TNFα-β-lactamase reporter gene in U937 cells, a human myelomonocytic leukemia cell line that naturally expresses the human GR. The assay measures compound dependent-repression of the TNFa promoter linked to a reporter gene.
The human U937 cells that had been stablely transfected with the TNF-α promoter driving β-lactamase are used for this assay. U937 cells contain an endogenous glucocorticoid receptor (GR). Cells are maintained in RPMI 1640 Growth medium (Gibco Cat#11875-093) containing 25 mM HEPES, 10% FBS, 2 mM L-Glutamine, 1 mM Sodium pyruvate, 25 μg/ml Gentamicin (Gibco Cat#15710-064), 1:1000 2-Mercaptoethanol (Gibco Cat#21985-023) and 0.8 mg/ml G418 (Gibco Cat#10131-027). The density of the cells in the flask needs to be about 1×106-3×10^6/ml at the time of harvest. Usually, the cells are split to 1.2˜1.4×10^5/ml (1:10) 3 days prior to the assay. 50,000 cells/well are plated in 96 well black-walled plates the day of assay. Test compounds are added 10 μL/well, and cells are incubated at 37° C. for 30˜45 min. For assaying compounds, first dilute 1:10 in DMSO to make 1 mM, then further dilute 1:100 in medium to make 10× stock prior to adding to the cells. Add 50 ng/ml PMA (Sigma, cat# P8139) 10 μL/well to a final concentration 5 ng/ml, and 1 μg/ml LPS (Sigma, cat# L4130) 10 μL/well to a final concentration 100 ng/ml. Incubate cells at 37° C. overnight for ˜18 hr. PMA is stored frozen as 100 μg/ml stock in DMSO. Dilute 1:10 in DMSO for a working stock of 10 μg/ml and store at −20 C. For assaying, dilute the 10 μg/ml working stock 1:200 in medium to make a 10× solution (50 ng/ml). Store frozen LPS at 1 mg/ml in PBS, dilute 1:1000 in medium to make 10× (1 μg/ml) for the assay. Add 6× loading buffer (CCF2-AM) 20 μL/well, and incubate at room temperature for 70˜90 min. […] The activity repressed by 100 nM dexamethasone alone is set as 100% activity.

The compound `C[C@]12Cc3cnn(-c4ccc(F)cc4)c3C=C1CC[C@@]2(CO)CC(O)c1ccccn1` (single isomer, unassigned) [Example 1a] registered a maximal response (Emax) of 93% and an EC50 of 5.6 nM.
With `C[C@]12Cc3cnn(-c4ccc(F)cc4)c3C=C1CC[C@@]2(CO)CC(O)c1ccccn1` (single isomer, unassigned) [Example 1b], the “Transrepression U937 Cells GITAR Emax (%)” value amounted to 91.7% and a half-maximal response (EC50) required 24 nM.
On to `Cc1ccc(C(O)C[C@]2(CO)CCC3=Cc4c(cnn4-c4ccc(F)cc4)C[C@@]32C)cc1` (single isomer, unassigned) [Example 2a], for which the “Transrepression U937 Cells GITAR Emax (%)” value was found to be 85.0% and the EC50 was 137 nM.
As for `Cc1ccc(C(O)C[C@]2(CO)CCC3=Cc4c(cnn4-c4ccc(F)cc4)C[C@@]32C)cc1` (single isomer, unassigned) [Example 2b], the Emax came to 94.4% and the midpoint of the response, the EC50, lay at 235 nM.
As for `C[C@]12Cc3cnn(-c4ccc(F)cc4)c3C=C1CC[C@@]2(CO)CC(O)c1ccccc1Cl` (single isomer, unassigned) [Example 3a], the maximal effect (Emax) was found to be 93.3% and a half-maximal response (EC50) required 37.6 nM.
Consider `C[C@]12Cc3cnn(-c4ccc(F)cc4)c3C=C1CC[C@@]2(CO)CC(O)c1ccccc1Cl` (single isomer, unassigned) [Example 3b], for which the “Transrepression U937 Cells GITAR Emax (%)” value was 99.6% and a half-maximal effect (EC50) was put at 6 nM.
Compound `Cc1cccc(C(O)C[C@]2(CO)CCC3=Cc4c(cnn4-c4ccc(F)cc4)C[C@@]32C)c1` (single isomer, unassigned) [Example 5a] came in with a maximal effect (Emax) of 84.7% and an EC50 of 86.1 nM.
As to `Cc1cccc(C(O)C[C@]2(CO)CCC3=Cc4c(cnn4-c4ccc(F)cc4)C[C@@]32C)c1` (single isomer, unassigned) [Example 5b], the “Transrepression U937 Cells GITAR Emax (%)” value came out at 91.8% and it took 29 nM to reach a half-maximal effect (EC50).
In the case of `C[C@]12Cc3cnn(-c4ccc(F)cc4)c3C=C1CC[C@@]2(CO)CC(O)c1cc(F)cc(Cl)c1` (single isomer, unassigned) [Example 6a], the Emax was 104% and a half-maximal effect (EC50) was put at 35.7 nM.
Consider `C[C@]12Cc3cnn(-c4ccc(F)cc4)c3C=C1CC[C@@]2(CO)CC(O)c1cc(F)cc(Cl)c1` (single isomer, unassigned) [Example 6b], for which the “Transrepression U937 Cells GITAR Emax (%)” value turned out to be 98.3% and the EC50 was 68.8 nM.
For the compound `C[C@]12Cc3cnn(-c4ccc(F)cc4)c3C=C1CC[C@@]2(CO)CC(O)c1cccc(C(F)(F)F)c1` (single isomer, unassigned) [Example 7a], the Emax is 95.3% and a half-maximal effect (EC50) was put at 87.6 nM.
`C[C@]12Cc3cnn(-c4ccc(F)cc4)c3C=C1CC[C@@]2(CO)CC(O)c1cccc(C(F)(F)F)c1` (single isomer, unassigned) [Example 7b]: the “Transrepression U937 Cells GITAR Emax (%)” value is reported as 98.4% and the half-maximal effective concentration (EC50) was found to be 44.7 nM.
With `C[C@]12Cc3cnn(-c4ccc(F)cc4)c3C=C1CC[C@@]2(CO)CC(O)c1ncccc1F` (single isomer, unassigned) [Example 10a], the Emax is 89.2% and the EC50 worked out at 16.5 nM.
For the compound `C[C@]12Cc3cnn(-c4ccc(F)cc4)c3C=C1CC[C@@]2(CO)CC(O)c1ncccc1F` (single isomer, unassigned) [Example 10b], the “Transrepression U937 Cells GITAR Emax (%)” value came out at 93.9% and it took 4 nM to reach a half-maximal effect (EC50).
The compound `C[C@]12Cc3cnn(-c4ccc(F)cc4)c3C=C1CC[C@@]2(CO)CC1OC(=O)c2ccccc21` (single isomer, unassigned) [Example 12a] came in with an Emax of 78.8% and a half-maximal effective concentration (EC50) of 93.1 nM.
In the case of `C[C@]12Cc3cnn(-c4ccc(F)cc4)c3C=C1CC[C@@]2(CO)CC1OC(=O)c2ccccc21` (single isomer, unassigned) [Example 12b], the “Transrepression U937 Cells GITAR Emax (%)” value is listed as 93.0% and the EC50 turned out to be 34.9 nM.
Compound `C[C@]12Cc3cnn(-c4ccc(F)cc4)c3C=C1CC[C@@]2(CO)CC(O)c1ccccc1` (single isomer, unassigned) [Example 13a] displayed an Emax of 91% and an EC50 of 3.9 nM.
With `C[C@]12Cc3cnn(-c4ccc(F)cc4)c3C=C1CC[C@@]2(CO)CC(O)c1ccccc1` (single isomer, unassigned) [Example 13b], the “Transrepression U937 Cells GITAR Emax (%)” value is recorded as 96.4% and a half-maximal response (EC50) required 18 nM.
As to `CC(C)C(O)C[C@]1(CO)CCC2=Cc3c(cnn3-c3ccc(F)cc3)C[C@@]21C` (single isomer, unassigned) [Example 14a], the Emax was found to be 82.2% and the midpoint of the response, the EC50, lay at 1130 nM.
With `CC(C)C(O)C[C@]1(CO)CCC2=Cc3c(cnn3-c3ccc(F)cc3)C[C@@]21C` (single isomer, unassigned) [Example 14b], the “Transrepression U937 Cells GITAR Emax (%)” value is reported as 82.3% and it took 249 nM to reach a half-maximal effect (EC50).
For the compound `C[C@]12Cc3cnn(-c4ccc(F)cc4)c3C=C1CC[C@@]2(CO)CC(O)c1cccnc1` (single isomer, unassigned) [Example 15a], the maximum response (Emax) worked out at 87.7% and the concentration for a half-maximal effect (EC50) is 56.3 nM.
In the case of `C[C@]12Cc3cnn(-c4ccc(F)cc4)c3C=C1CC[C@@]2(CO)CC(O)c1cccnc1` (single isomer, unassigned) [Example 15b], the “Transrepression U937 Cells GITAR Emax (%)” value turned out to be 80.6% and the EC50 came to 98.5 nM.
`C[C@]12Cc3cnn(-c4ccc(F)cc4)c3C=C1CC[C@@]2(CO)CC(O)c1ccncc1` (single isomer, unassigned) [Example 17a] showed a maximal effect (Emax) of 86.1% and an EC50 of 75.3 nM.
For `C[C@]12Cc3cnn(-c4ccc(F)cc4)c3C=C1CC[C@@]2(CO)CC(O)c1ccncc1` (single isomer, unassigned) [Example 17b], the “Transrepression U937 Cells GITAR Emax (%)” value amounted to 83.3% and the EC50 worked out at 59.7 nM.
In the case of `C[C@]12Cc3cnn(-c4ccc(F)cc4)c3C=C1CC[C@@]2(CO)CC(O)C1CCCCC1` (single isomer, unassigned) [Example 18a, 1-cyclohexyl-2-[(4αS)-1-(4-fluorophenyl)-5-(hydroxymethyl)-4α-methyl-1,4,4α,5,6,7-hexahydrocyclopenta[f]indazol-5-yl]ethanol], the Emax was determined as 93.1% and it took 7.9 nM to reach a half-maximal effect (EC50).
As to `C[C@]12Cc3cnn(-c4ccc(F)cc4)c3C=C1CC[C@@]2(CO)CC(O)C1CCCCC1` (single isomer, unassigned) [Example 18b, 1-cyclohexyl-2-[(4αS)-1-(4-fluorophenyl)-5-(hydroxymethyl)-4α-methyl-1,4,4α,5,6,7-hexahydrocyclopenta[f]indazol-5-yl]ethanol], the “Transrepression U937 Cells GITAR Emax (%)” value is on record as 97.7% and the EC50 came to 25.7 nM.
For the compound `C[C@]12Cc3cnn(-c4cccc(F)c4)c3C=C1CC[C@@]2(CO)CC(O)c1ccccn1` (single isomer, unassigned) [Example 19a], the maximal response (Emax) was 91.2% and the EC50 turned out to be 32.7 nM.
Take `C[C@]12Cc3cnn(-c4cccc(F)c4)c3C=C1CC[C@@]2(CO)CC(O)c1ccccn1` (single isomer, unassigned) [Example 19b]: the “Transrepression U937 Cells GITAR Emax (%)” value is recorded as 86.7% and a half-maximal response (EC50) required 73.8 nM.

Usually Emax stands for the greatest response seen or fitted, relative to the assay's reference. A word on the EC50: it is the concentration giving half of the maximal effect. Lower therefore signals greater potency.

The values are drawn from patent US20120095055A1, “HEXAHYDROCYCLOPENTYL[f]INDAZOLE 5-HYDROXYMETHYL ETHANOLS AND DERIVATIVES THEREOF AS SELECTIVE GLUCOCORTICOID RECEPTOR MODULATORS” (Merck Sharp & Dohme, Corp., priority 2009, published 2012).
